The source of these data is ChEMBL document CHEMBL1629515, “Synthesis and biological evaluation of oleanolic acid derivatives as inhibitors of protein tyrosine phosphatase 1B” (J Nat Prod, 2010).

pIC50: −log10 of the molar value.

In the assay the target is T1, Tyrosine-protein phosphatase non-receptor type 1 (Homo sapiens, UniProt P18031).
T1 sequence (P18031 whole entry): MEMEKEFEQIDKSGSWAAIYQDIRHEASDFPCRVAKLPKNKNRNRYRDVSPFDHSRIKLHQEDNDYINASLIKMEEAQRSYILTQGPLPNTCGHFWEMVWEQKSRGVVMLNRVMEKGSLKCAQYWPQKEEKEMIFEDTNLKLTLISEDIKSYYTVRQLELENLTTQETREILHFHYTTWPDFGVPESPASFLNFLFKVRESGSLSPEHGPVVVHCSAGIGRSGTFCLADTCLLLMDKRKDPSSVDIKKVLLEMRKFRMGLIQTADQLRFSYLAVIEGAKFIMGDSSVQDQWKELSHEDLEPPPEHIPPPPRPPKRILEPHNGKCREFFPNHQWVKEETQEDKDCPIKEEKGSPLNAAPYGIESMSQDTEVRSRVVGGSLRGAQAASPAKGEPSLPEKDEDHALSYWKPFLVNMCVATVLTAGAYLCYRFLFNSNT
Briefly: Inhibition of recombinant PTP1B expressed in Escherichia coli BL21 after 30 mins by spectrophotometry.
Consider `CC1(C)CC[C@]2(COC(=O)CCCC(=O)O)CC[C@]3(C)C(=CC[C@@H]4[C@@]5(C)CCC(=O)C(C)(C)[C@@H]5CC[C@]43C)[C@@H]2C1`, for which the pIC50 was 5.19. `CC1(C)CC[C@]2(COC(=O)c3ccccc3C(=O)O)CC[C@]3(C)C(=CC[C@@H]4[C@@]5(C)CCC(=O)C(C)(C)[C@@H]5CC[C@]43C)[C@@H]2C1`: the pIC50 was 5.51.

For the molecule `CC1(C)CC[C@]2(COC(=O)CCC(=O)O)CC[C@]3(C)C(=CC[C@@H]4[C@@]5(C)CCC(=O)C(C)(C)[C@@H]5CC[C@]43C)[C@@H]2C1`, the pIC50 is 5.34. Take `CC1(C)CC[C@]2(COC(=O)CC(=O)O)CC[C@]3(C)C(=CC[C@@H]4[C@@]5(C)CCC(=O)C(C)(C)[C@@H]5CC[C@]43C)[C@@H]2C1`: the pIC50 was 5.39.
